Earlier results on five molecules are cited in patent publication US6420378B1, “Inhibition of abnormal cell proliferation with camptothecin and combinations including the same” (priority 1999, dated 2002).

Data set [1] concerns human tumor xenografts.
For data set [2], the system named is nontumorigenic human cells. The following applies: in vitro.
In data set [3] the test system is tumorigenic human cells. The following applies: in vitro.
For data set [4] the following is noted: clinical trials, administered intravenously.
The subject of data set [5] is human colon cancer xenografts. The note with it: mouse, in vivo.

SMILES strings stand for the structures.

In the case of `CC[C@@]1(O)C(=O)OCc2c1cc1n(c2=O)Cc2cc3c([N+](=O)[O-])cccc3nc2-1` [9NC, 9-nitrocamptothecin], the “growth of human tumor xenografts” value in data set [1] (immunodeficient nude mice) is recorded as “inhibited the growth”. In addition, the “activity against human tumor xenograft models” value in data set [1] (mouse, in vivo) is on record as “high activity”. For the same molecule, the “regression of human tumors established as xenografts” value in data set [1] (nude mice) is reported as “induced regression”.
`CC[C@@]1(O)C(=O)OCc2c1cc1n(c2=O)Cc2cc3ccccc3nc2-1` [20(S)-camptothecin]: in data set [2], the “effect on nontumorigenic cells” value was “cytostatic”. Moreover, the “effect on tumorigenic cells” value in data set [3] is “cytotoxic”.
Turning to `CC[C@@](O)(C(=O)[O-])c1cc2n(c(=O)c1CO)Cc1cc3ccccc3nc1-2.[Na+]` [20(S)-camptothecin Na+], in data set [4], the potency entry is reported as “low potency” and the toxicity result is recorded as “high toxicity”.
Regarding `CC[C@@]1(O)C(=O)OCc2c1cc1n(c2=O)Cc2cc3cc4c(cc3nc2-1)OCO4` [10,11 MD, 10,11-Methylendioxy-20(S)-Camptothecin], in data set [5], the “anticancer activity against human colon cancer xenografts” value was “high anticancer activity”.
For the molecule `CC[C@@]1(O)C(=O)OCc2c1cc1n(c2=O)Cc2cc3c(N)cccc3nc2-1` [9AC, 9-Amino-20(S)-Camptothecin], the “anticancer activity against human colon cancer xenografts” value in data set [5] is given as “high anticancer activity”.
